Test results from ChEMBL document CHEMBL3600367, “Anti-plasmodial activity of bradykinin and analogs” (Bioorg Med Chem Lett, 2015).
Activity calls are given as the source filed them. The calls are words filed in the database; no cut-off is given here. Residues, ends and D or L forms follow the SMILES beside them.

Key:
Plasmodium gallinaceum = test: Antiplasmodial activity against mature Plasmodium gallinaceum sporozoites isolated from Aedes aegypti RED assessed as increase in membrane permeability at 60 umol/L after 1 hr by propidium iodide staining-based inverted fluorescence microscopic analysis; format: functional
Plasmodium falciparum = test: Antiplasmodial activity against Plasmodium falciparum W2 schizonts infected in human erythrocytes assessed as appearance of intracellular ring forms at 10^-8 mol/L after 24 hrs by Diff quick staining-based light microscopic analysis; format: functional, organism-based
[1] = Metabolic stability in plasma (unknown origin); format: ADME, cell-free

Row | Structure (SMILES) | Activity (Plasmodium gallinaceum) | Activity (Plasmodium falciparum) | Stability [1]
1 | CC(C)C[C@H](NC(=O)[C@@H]1CCCN1C(=O)[C@H](CO)NC(=O)[C@H](CCC(=O)O)NC(=O)[C@H](Cc1ccccc1)NC(=O)[C@H](CCCNC(=N)N)NC(=O)[C@@H](NC(=O)[C@@H]1CCCN1C(=O)[C@H](CC(C)C)NC(=O)CNC(=O)[C@@H]1CCCN1C(=O)[C@@H](N)CCCNC(=N)N)C(C)C)C(N)=O (H-RPGLPVRFESPL-NH2) | inactive | inactive | 
2 | CC(C)C[C@@H](NC(=O)[C@H]1CCCN1C(=O)[C@H](NC(=O)[C@@H](CCCNC(=N)N)NC(=O)[C@@H](CO)NC(=O)[C@@H](Cc1ccccc1)NC(=O)[C@@H](CO)NC(=O)[C@H]1CCCN1C(=O)[C@@H](CC(C)C)NC(=O)[C@H](N)CCCNC(=N)N)C(C)C)C(=O)NCC(=O)N1CCC[C@@H]1C(=O)N1CCC[C@@H]1C(=O)N[C@H](CCCNC(=N)N)C(N)=O |  | inactive | Stable
3 | CC(C)C[C@@H](N)C(=O)N1CCC[C@@H]1C(=O)N[C@H](CO)C(=O)N[C@H](CCC(=O)O)C(=O)N[C@H](Cc1ccccc1)C(=O)N[C@H](CCCNC(=N)N)C(=O)N[C@@H](C(=O)N1CCC[C@@H]1C(=O)N[C@H](CC(C)C)C(=O)NCC(=O)N1CCC[C@@H]1C(=O)N[C@H](CCCNC(=N)N)C(N)=O)C(C)C | Active | inactive | Stable
4 | CC(C)C[C@H](NC(=O)[C@@H]1CCCN1C(=O)[C@H](CO)NC(=O)[C@H](Cc1ccccc1)NC(=O)[C@H](CO)NC(=O)[C@H](CCCNC(=N)N)NC(=O)[C@@H](NC(=O)[C@@H]1CCCN1C(=O)[C@H](CC(C)C)NC(=O)CNC(=O)[C@@H]1CCCN1C(=O)[C@@H]1CCCN1C(=O)[C@@H](N)CCCNC(=N)N)C(C)C)C(=O)N[C@@H](CCCNC(=N)N)C(N)=O (H-RPPGLPVRSFSPLR-NH2) | Active | inactive | 
5 | N=C(N)NCCC[C@H](NC(=O)[C@H](Cc1ccccc1)NC(=O)[C@@H]1CCCN1C(=O)[C@H](CO)NC(=O)[C@H](Cc1ccccc1)NC(=O)CNC(=O)[C@@H]1CCCN1C(=O)[C@@H]1CCCN1C(=O)[C@@H](N)CCCNC(=N)N)C(=O)O [BRADYKININ] (H-RPPGFSPFR-OH) | 98% | inactive | 
6 | CC[C@H](C)[C@H](NC(=O)[C@H](Cc1ccc(O)cc1)NC(=O)[C@@H](NC(=O)[C@H](CCCNC(=N)N)NC(=O)[C@@H](N)CC(=O)O)C(C)C)C(=O)N[C@@H](Cc1cnc[nH]1)C(=O)N1CCC[C@H]1C(=O)N[C@@H](Cc1ccccc1)C(=O)O [ANGIOTENSIN II] | 88% |  | 
